One may read the IC50 as the concentration needed to halve the response being measured.

Results on eight molecules are retold here after ChEMBL document CHEMBL3352084, “Bioactive compounds from the insect Aspongopus chinensis” (Bioorg Med Chem Lett, 2014).

SMILES strings stand for the structures. Activity calls are given as the source filed them. The rule behind the calls is not given here.

In data set [1] the test system is Rattus norvegicus. As to the kind of experiment: Inhibition of high glucose-induced IL6 production in rat renal mesangial cells dosed for 1 hr before 30 mM D-glucose stimulation for 24 hrs by ELISA. The class given is functional.
Data set [2] concerns Rattus norvegicus. As to the kind of experiment: Inhibition of high glucose-induced fibronectin production in rat renal mesangial cells dosed for 1 hr before 30 mM D-glucose stimulation for 24 hrs by ELISA. In kind it is functional.
In data set [3] the test system is Rattus norvegicus. Briefly: Inhibition of high glucose-induced collagen 4 production in rat renal mesangial cells dosed for 1 hr before 30 mM D-glucose stimulation for 24 hrs by ELISA. The class given is functional.
In data set [4] the target is Prostaglandin G/H synthase 2 (Homo sapiens, UniProt P35354). Briefly: Inhibition of human recombinant COX2 pre-incubated for 15 mins before arachidonic acid addition by fluorescence micro plate reader method.
A short description of data set [5]: Retention time of the compound by […] method. The class given is physicochemical.

Chain of Prostaglandin G/H synthase 2 (P35354 whole entry, looked up): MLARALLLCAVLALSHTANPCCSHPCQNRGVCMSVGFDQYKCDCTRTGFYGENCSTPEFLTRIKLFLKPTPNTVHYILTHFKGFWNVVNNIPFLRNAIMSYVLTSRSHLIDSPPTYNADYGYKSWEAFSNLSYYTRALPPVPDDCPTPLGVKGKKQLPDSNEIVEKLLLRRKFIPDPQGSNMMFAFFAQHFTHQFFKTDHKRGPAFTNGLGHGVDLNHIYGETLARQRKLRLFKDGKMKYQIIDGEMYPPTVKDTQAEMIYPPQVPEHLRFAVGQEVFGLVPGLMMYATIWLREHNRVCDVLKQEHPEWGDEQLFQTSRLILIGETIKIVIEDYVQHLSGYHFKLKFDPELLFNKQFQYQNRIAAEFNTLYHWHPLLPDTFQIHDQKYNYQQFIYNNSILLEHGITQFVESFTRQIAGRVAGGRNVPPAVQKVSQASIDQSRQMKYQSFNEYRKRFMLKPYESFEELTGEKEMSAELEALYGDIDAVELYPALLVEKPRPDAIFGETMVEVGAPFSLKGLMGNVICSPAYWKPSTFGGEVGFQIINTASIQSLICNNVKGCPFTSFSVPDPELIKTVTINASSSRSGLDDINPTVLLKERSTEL

Turning to `CC(=O)N/C=C\c1ccc2c(c1)OC(c1ccc(O)c(O)c1)C(NC(C)=O)O2` (configuration not stated), the inhibition result in the data set with Rattus norvegicus [1], with Rattus norvegicus [2] and in the data set with Rattus norvegicus [3] was “Active” in each case. In data set [4], the IC50 came out at 6.5 µM.

Regarding `C/C(=C/CCC(C)c1cc(O[C@@H]2O[C@H](CO)[C@@H](O)[C@H](O)[C@H]2O)c(O)cc1C)C(=O)O` (some centres not stated), the Retention_time in data set [5] is on record as 25.461 min.

Turning to `CC(=O)/C=C/c1ccc(O)c(O)c1`, the IC50 in data set [4] was 22.2 µM.

`CC(C)C[C@@H]1NC(=O)[C@H](Cc2c[nH]c3ccccc23)NC1=O`: the inhibition result in the data set on Rattus norvegicus [1], in the data set on Rattus norvegicus [2] and in the data set on Rattus norvegicus [3] was “Active” throughout.

Regarding `CC(=O)N/C=C\c1ccc2c(c1)OC(NC(C)=O)C(c1ccc(O)c(O)c1)O2` (configuration not stated), the inhibition result with Rattus norvegicus [1], in the data set with Rattus norvegicus [2] and in the data set on Rattus norvegicus [3] was “Active” in each case.

In the case of `CC(=O)NC[C@@H](OC[C@H](O)CO)c1ccc(O)c(O)c1`, in data set [4], the IC50 is 117 µM.

Consider `CCc1nc(C)ccc1O`, for which the inhibition entry in the data set on Rattus norvegicus [1], in the data set with Rattus norvegicus [2] and with Rattus norvegicus [3] was “Active” each time.

In the case of `CC(=O)NCCc1ccc(O)c(O)c1`, the IC50 in data set [4] was 18.9 µM.
